# Measurements reported in US7371741B2, “Estradiol derivatives and pharmaceutical compositions using same” (EntreMed, Inc., priority 2003, dated 2008).
# Test system: PC3: prostate cancer
# Assay: In vitro anti-proliferative activity, BrdU incorporation, PC3
# Assay type: cell-based
# Details: PC3 cells, 50% inhibition of proliferation, BrdU incorporation into DNA
# Experimental: (§1) Determination of in vitro anti-proliferative activity of substituted estradiol analogs: In vitro anti-proliferative or anti-mitogenic activity was determined using a commercially available cell-based assay in 96-well tissue culture plates with assessment of proliferation by evaluating DNA synthesis through incorporation into DNA of immuno-reactive (BrdU) nucleotides. The cell types used are commercially available (MDA-MB-231: breast cancer; U87-MG: glioblastoma; PC3: prostate cancer; HUVEC: non-transformed early passage human umbilical vein endothelial cells). These assays, and the many assay variations possible to determine in vitro anti-proliferative or anti-mitogenic activity, are well known to those skilled in the art. The concentration which causes 50% inhibition of proliferation (IC50) was estimated from a dose-response curve generally carried out with a range of concentrations from ≧100 microg/mL to ≦0.01 microg/mL.
row,Compound,IC50
1,"COc1cc2c(cc1OS(N)(=O)=O)CC[C@@H]1[C@@H]2CC[C@]2(C)C(=O)CC[C@@H]12 [Compound 19, 3-sulfamate-2-methoxyestra-1,3,5(10)-trien-17-one]",510 ± 240 nM
2,"CCOc1cc2c(cc1OS(N)(=O)=O)CC[C@@H]1[C@@H]2CC[C@]2(C)C(=O)CC[C@@H]12 [Compound 20, 3-sulfamate-2-ethoxyestra-1,3,5(10)-trien-17-one]",8930 ± 610 nM
3,"COc1cc2c(cc1C(=O)O)CC[C@@H]1[C@@H]2CC[C@]2(C)C(=O)CC[C@@H]12 [Compound 28, 2-methoxy-3-(carboxylic acid)estra-1,3,5(10)-triene-17-one]",> 100000 nM
4,"COc1cc2c(cc1C(N)=O)CC[C@@H]1[C@@H]2CC[C@]2(C)C(=O)CC[C@@H]12 [Compound 31, 2-methoxy-3-carboxamideestra-1,3,5(10)-triene-17-one]",700 ± 30 nM
5,"COc1cc2c(cc1NC=O)CC[C@@H]1[C@@H]2CC[C@]2(C)C(O)CC[C@@H]12 (stereo partly shown) [Compound 43, 3-Formamide-2-methoxyestra-1,3-5(10)-trien-17-ol]",1340 ± 20 nM
6,"COc1cc2c(cc1NC=O)CC[C@@H]1[C@@H]2CC[C@]2(C)C(=O)CC[C@@H]12 [Compound 43A, 3-formamide-2-methoxyestra-1,3,5(10)-triene-17-one]",610 ± 270 nM
7,"CCOc1cc2c(cc1NC=O)CC[C@@H]1[C@@H]2CC[C@]2(C)C(=O)CC[C@@H]12 [Compound 44A, 3-Formamide-2-ethoxyestra-1,3-5(10)-trien-17-one]",27700 ± 620 nM
8,"COc1cc2c(cc1OS(N)(=O)=O)CC[C@@H]1[C@@H]2CC[C@]2(C)CCC[C@@H]12 [Compound 46, 3-sulfamate-2-methoxyestra-1,3,5(10)-triene]",380 ± 210 nM
9,"COc1cc2c(cc1C(N)=O)CC[C@@H]1[C@@H]2CC[C@]2(C)CCC[C@@H]12 [Compound 58, (2-Methoxyestra-1,3,5(10)-trien-3-yl)-3-carboxamide]",2580 ± 360 nM
10,"COc1cc2c(cc1NC=O)CC[C@@H]1[C@@H]2CC[C@]2(C)CCC[C@@H]12 [Compound 64, 3-formamide-2-methoxyestra-1,3,5(10)-triene]",9240 ± 590 nM
11,"C=C1CC[C@H]2[C@@H]3CCc4cc(OS(N)(=O)=O)c(OC)cc4[C@H]3CC[C@]12C [Compound 70, 17-methylene-3-sulfamate-2-methoxyestra-1,3,5(10)-triene]",910 ± 320 nM
12,"C=C1CC[C@H]2[C@@H]3CCc4cc(OS(=O)(=O)C(F)(F)F)c(OC)cc4[C@H]3CC[C@]12C [Compound 73, 3-triflic-17-methylene-2-methoxyestra-1,3,5(10)-triene]",> 100000 nM

# Test system: U87-MG: glioblastoma
# Assay: In vitro anti-proliferative activity, BrdU incorporation, U87-MG
# Assay type: cell-based
# Details: U87-MG cells, 50% inhibition of proliferation, BrdU incorporation into DNA
# Experimental: as §1
row,Compound,IC50
1,"COc1cc2c(cc1OS(N)(=O)=O)CC[C@@H]1[C@@H]2CC[C@]2(C)C(=O)CC[C@@H]12 [Compound 19, 3-sulfamate-2-methoxyestra-1,3,5(10)-trien-17-one]",800 ± 230 nM
2,"CCOc1cc2c(cc1OS(N)(=O)=O)CC[C@@H]1[C@@H]2CC[C@]2(C)C(=O)CC[C@@H]12 [Compound 20, 3-sulfamate-2-ethoxyestra-1,3,5(10)-trien-17-one]",19800 ± 2320 nM
3,"COc1cc2c(cc1C(=O)O)CC[C@@H]1[C@@H]2CC[C@]2(C)C(=O)CC[C@@H]12 [Compound 28, 2-methoxy-3-(carboxylic acid)estra-1,3,5(10)-triene-17-one]",> 100000 nM
4,"COc1cc2c(cc1C(N)=O)CC[C@@H]1[C@@H]2CC[C@]2(C)C(=O)CC[C@@H]12 [Compound 31, 2-methoxy-3-carboxamideestra-1,3,5(10)-triene-17-one]",1070 ± 150 nM
5,"COc1cc2c(cc1NC=O)CC[C@@H]1[C@@H]2CC[C@]2(C)C(O)CC[C@@H]12 (stereo partly shown) [Compound 43, 3-Formamide-2-methoxyestra-1,3-5(10)-trien-17-ol]",2700 ± 220 nM
6,"COc1cc2c(cc1NC=O)CC[C@@H]1[C@@H]2CC[C@]2(C)C(=O)CC[C@@H]12 [Compound 43A, 3-formamide-2-methoxyestra-1,3,5(10)-triene-17-one]",940 ± 90 nM
7,"CCOc1cc2c(cc1NC=O)CC[C@@H]1[C@@H]2CC[C@]2(C)C(=O)CC[C@@H]12 [Compound 44A, 3-Formamide-2-ethoxyestra-1,3-5(10)-trien-17-one]",21100 nM
8,"COc1cc2c(cc1OS(N)(=O)=O)CC[C@@H]1[C@@H]2CC[C@]2(C)CCC[C@@H]12 [Compound 46, 3-sulfamate-2-methoxyestra-1,3,5(10)-triene]",720 ± 40 nM
9,"COc1cc2c(cc1C(N)=O)CC[C@@H]1[C@@H]2CC[C@]2(C)CCC[C@@H]12 [Compound 58, (2-Methoxyestra-1,3,5(10)-trien-3-yl)-3-carboxamide]",4520 ± 1300 nM
10,"COc1cc2c(cc1NC=O)CC[C@@H]1[C@@H]2CC[C@]2(C)CCC[C@@H]12 [Compound 64, 3-formamide-2-methoxyestra-1,3,5(10)-triene]",23200 ± 2000 nM
11,"C=C1CC[C@H]2[C@@H]3CCc4cc(OS(N)(=O)=O)c(OC)cc4[C@H]3CC[C@]12C [Compound 70, 17-methylene-3-sulfamate-2-methoxyestra-1,3,5(10)-triene]",700 ± 60 nM
12,"C=C1CC[C@H]2[C@@H]3CCc4cc(OS(=O)(=O)C(F)(F)F)c(OC)cc4[C@H]3CC[C@]12C [Compound 73, 3-triflic-17-methylene-2-methoxyestra-1,3,5(10)-triene]",> 100000 nM

# Test system: MDA-MB-231: breast cancer
# Assay: In vitro anti-proliferative activity, BrdU incorporation, MDA-MB-231
# Assay type: cell-based
# Details: Homo sapiens; MDA-MB-231 cells, 50% inhibition of proliferation, BrdU incorporation into DNA
# Experimental: as §1
row,Compound,IC50
1,"CCOc1cc2c(cc1O)CC[C@@H]1[C@@H]2CC[C@]2(C)C(O)CC[C@@H]12 (stereo partly shown) [Compound 2, 2-Ethoxyestra-1,3,5(10)-trien-3,17-diol]",650 ± 230 nM

# Same assay, conditions: MDA-MB-231 cells, 50% inhibition of proliferation, BrdU incorporation into DNA
row,Compound,IC50
1,"C=C1CC[C@H]2[C@@H]3CCc4cc(O)c(OC)cc4[C@H]3CC[C@]12C [Compound 10, 2-methoxy-17(20)-methyleneestra-1,3,5(10)-triene-3-ol]",580 ± 310 nM
2,"COc1cc2c(cc1OS(N)(=O)=O)CC[C@@H]1[C@@H]2CC[C@]2(C)C(=O)CC[C@@H]12 [Compound 19, 3-sulfamate-2-methoxyestra-1,3,5(10)-trien-17-one]",600 ± 430 nM
3,"CCOc1cc2c(cc1OS(N)(=O)=O)CC[C@@H]1[C@@H]2CC[C@]2(C)C(=O)CC[C@@H]12 [Compound 20, 3-sulfamate-2-ethoxyestra-1,3,5(10)-trien-17-one]",7520 ± 2040 nM
4,"COc1cc2c(cc1C(=O)O)CC[C@@H]1[C@@H]2CC[C@]2(C)C(=O)CC[C@@H]12 [Compound 28, 2-methoxy-3-(carboxylic acid)estra-1,3,5(10)-triene-17-one]",> 100000 nM
5,"COc1cc2c(cc1C(N)=O)CC[C@@H]1[C@@H]2CC[C@]2(C)C(=O)CC[C@@H]12 [Compound 31, 2-methoxy-3-carboxamideestra-1,3,5(10)-triene-17-one]",700 ± 120 nM
6,"COc1cc2c(cc1NC=O)CC[C@@H]1[C@@H]2CC[C@]2(C)C(O)CC[C@@H]12 (stereo partly shown) [Compound 43, 3-Formamide-2-methoxyestra-1,3-5(10)-trien-17-ol]",780 ± 10 nM
7,"COc1cc2c(cc1NC=O)CC[C@@H]1[C@@H]2CC[C@]2(C)C(=O)CC[C@@H]12 [Compound 43A, 3-formamide-2-methoxyestra-1,3,5(10)-triene-17-one]",1220 ± 600 nM
8,"CCOc1cc2c(cc1NC=O)CC[C@@H]1[C@@H]2CC[C@]2(C)C(=O)CC[C@@H]12 [Compound 44A, 3-Formamide-2-ethoxyestra-1,3-5(10)-trien-17-one]",24900 ± 5630 nM
9,"COc1cc2c(cc1OS(N)(=O)=O)CC[C@@H]1[C@@H]2CC[C@]2(C)CCC[C@@H]12 [Compound 46, 3-sulfamate-2-methoxyestra-1,3,5(10)-triene]",380 ± 150 nM
10,"COc1cc2c(cc1C(N)=O)CC[C@@H]1[C@@H]2CC[C@]2(C)CCC[C@@H]12 [Compound 58, (2-Methoxyestra-1,3,5(10)-trien-3-yl)-3-carboxamide]",5230 ± 1950 nM
11,"COc1cc2c(cc1NC=O)CC[C@@H]1[C@@H]2CC[C@]2(C)CCC[C@@H]12 [Compound 64, 3-formamide-2-methoxyestra-1,3,5(10)-triene]",8290 ± 1640 nM
12,"C=C1CC[C@H]2[C@@H]3CCc4cc(OS(N)(=O)=O)c(OC)cc4[C@H]3CC[C@]12C [Compound 70, 17-methylene-3-sulfamate-2-methoxyestra-1,3,5(10)-triene]",560 ± 20 nM
13,"C=C1CC[C@H]2[C@@H]3CCc4cc(OS(=O)(=O)C(F)(F)F)c(OC)cc4[C@H]3CC[C@]12C [Compound 73, 3-triflic-17-methylene-2-methoxyestra-1,3,5(10)-triene]",> 100000 nM

# Test system: HUVEC: non-transformed early passage human umbilical vein endothelial cells
# Assay: In vitro anti-proliferative activity, BrdU incorporation, HUVEC
# Assay type: cell-based
# Details: 50% inhibition of proliferation, BrdU incorporation into DNA
# Experimental: as §1
row,Compound,IC50
1,"C=C1CC[C@H]2[C@@H]3CCc4cc(O)c(OC)cc4[C@H]3CC[C@]12C [Compound 10, 2-methoxy-17(20)-methyleneestra-1,3,5(10)-triene-3-ol]",260 ± 230 nM
2,"COc1cc2c(cc1OS(N)(=O)=O)CC[C@@H]1[C@@H]2CC[C@]2(C)C(=O)CC[C@@H]12 [Compound 19, 3-sulfamate-2-methoxyestra-1,3,5(10)-trien-17-one]",180 ± 40 nM
3,"CCOc1cc2c(cc1OS(N)(=O)=O)CC[C@@H]1[C@@H]2CC[C@]2(C)C(=O)CC[C@@H]12 [Compound 20, 3-sulfamate-2-ethoxyestra-1,3,5(10)-trien-17-one]",2590 ± 250 nM
4,"COc1cc2c(cc1C(=O)O)CC[C@@H]1[C@@H]2CC[C@]2(C)C(=O)CC[C@@H]12 [Compound 28, 2-methoxy-3-(carboxylic acid)estra-1,3,5(10)-triene-17-one]",> 100000 nM
5,"COc1cc2c(cc1C(N)=O)CC[C@@H]1[C@@H]2CC[C@]2(C)C(=O)CC[C@@H]12 [Compound 31, 2-methoxy-3-carboxamideestra-1,3,5(10)-triene-17-one]",790 ± 200 nM
6,"COc1cc2c(cc1NC=O)CC[C@@H]1[C@@H]2CC[C@]2(C)C(O)CC[C@@H]12 (stereo partly shown) [Compound 43, 3-Formamide-2-methoxyestra-1,3-5(10)-trien-17-ol]",70 ± 20 nM
7,"COc1cc2c(cc1NC=O)CC[C@@H]1[C@@H]2CC[C@]2(C)C(=O)CC[C@@H]12 [Compound 43A, 3-formamide-2-methoxyestra-1,3,5(10)-triene-17-one]",530 ± 220 nM
8,"CCOc1cc2c(cc1NC=O)CC[C@@H]1[C@@H]2CC[C@]2(C)C(=O)CC[C@@H]12 [Compound 44A, 3-Formamide-2-ethoxyestra-1,3-5(10)-trien-17-one]",13200 ± 2200 nM
9,"COc1cc2c(cc1OS(N)(=O)=O)CC[C@@H]1[C@@H]2CC[C@]2(C)CCC[C@@H]12 [Compound 46, 3-sulfamate-2-methoxyestra-1,3,5(10)-triene]",210 ± 150 nM
10,"COc1cc2c(cc1C(N)=O)CC[C@@H]1[C@@H]2CC[C@]2(C)CCC[C@@H]12 [Compound 58, (2-Methoxyestra-1,3,5(10)-trien-3-yl)-3-carboxamide]",1420 ± 410 nM
11,"COc1cc2c(cc1NC=O)CC[C@@H]1[C@@H]2CC[C@]2(C)CCC[C@@H]12 [Compound 64, 3-formamide-2-methoxyestra-1,3,5(10)-triene]",5800 ± 730 nM
12,"C=C1CC[C@H]2[C@@H]3CCc4cc(OS(N)(=O)=O)c(OC)cc4[C@H]3CC[C@]12C [Compound 70, 17-methylene-3-sulfamate-2-methoxyestra-1,3,5(10)-triene]",580 ± 30 nM
13,"C=C1CC[C@H]2[C@@H]3CCc4cc(OS(=O)(=O)C(F)(F)F)c(OC)cc4[C@H]3CC[C@]12C [Compound 73, 3-triflic-17-methylene-2-methoxyestra-1,3,5(10)-triene]",> 100000 nM

# Same assay, conditions: Homo sapiens, 50% inhibition of proliferation, BrdU incorporation into DNA
row,Compound,IC50
1,"CCOc1cc2c(cc1O)CC[C@@H]1[C@@H]2CC[C@]2(C)C(O)CC[C@@H]12 (stereo partly shown) [Compound 2, 2-Ethoxyestra-1,3,5(10)-trien-3,17-diol]",140 ± 70 nM
